From patent US20080220416A1, “Compositions for Inhibiting Cell Growth and Inducing Apoptosis in Cancer Cells and Methods of Use Thereof” (THE BOARD OF TRUSTEES OF THE UNIVERSITY OF ILLINOI, priority 2004, published 2008)

Key:
Type in all cases: cell-based, human
[1] = system: MDA-MB231 breast cancer cells; assay: Cytotoxicity and growth assay in MDA-MB231 breast cancer cells (SRB, TCA-precipitated protein); details: MDA-MB231; siRNA transfection
Description: An invasive, estrogen-independent breast cancer cell line that spontaneously expresses high levels of Notch-1 and -4, MDA-MB231, and normal human breast cells were used to investigate whether inhibition of Notch activation or expression affects the biological behavior of breast cancer cells. Human Mammary Epithelial Cells (HMEC) were purchased from Clonetics and cultured in mammary epithelial cell basal medium (MEBM) supplemented with 52 μg/ml Bovine Pituitary Extract […], […] human recombinant Epidermal Growth Factor (hEGF), 5 μg/ml insulin, 0.5 μg/ml Hydrocortisone, 50 μg/ml Gentamicin and 50 μg/ml Amphotericin-B. MDA-MB231 (ATCC, Rockville, Md.) were cultured in DMEM medium with 10% FBS. Notch expression in HMEC and MDA-MB231 cells was silenced using highly specific RNAi. Double-stranded synthetic 21-mer RNA oligonucleotides (siRNAs) were purchased from Dharmacon (Lafayette, Colo.). […] Sequence specificity was determined by BLAST searches which determined the uniqueness of the sequences. Transfection of siRNAs was performed using Oligofectamine (Invitrogen) as recommended by the siRNA manufacturer (Dharmacon). Transfection efficiency was optimized and followed on parallel wells using DNA double stranded oligos of identical sequence to the siRNAs, labeled with biotin on one strand. Transfected cells were identified by Streptavidin-horseradish peroxidase staining (Vectastain) and counted. Transfection efficiencies around 80% were routinely obtained.
Cytotoxicity and growth of transfected cells were estimated by a standard assay used for cancer drug screening, through the total amount of TCA-precipitated cell proteins after drug treatment (Likhitwitayawuid, K et al., 1993, J Nat Prod 56:30-38): 200 μl of cell suspension (10^5 cells/ml) were added to each well in a 96-well plate. After incubation at, 37° C., in 5% CO2 (30 minutes to 72 hours depending on the time course chosen), 50 μl 50% trichloroacetic acid was added to each well. After incubation at 4° C. for 1 hour, precipitates were washed with water 4-5 times and air dried overnight. One hundred μl of SRB solution (0.4% sulforhodamine B in 1% acetic acid, filtered before use) was added to each well for 30 minutes. Wells were washed with 1% acetic acid 4-5 times and air dried. Two hundred μl 10 mM Tris base was added to each well. Plates were shaken for 5-10 minutes and OD at 490 nm (OD490) was recorded via ELISA reader. To assay matrix invasion, 300 μl of cell suspension (10^6 cells/mL in serum-free medium) were added to invasion inserts (BioCoat Matrigel Invasion Chambers, Becton Dickinson, Bedford, Mass.) and incubated for 22 hours at 37° C., 5% CO2. […] After removal of the non-invading cells from the interior of the inserts, stained invading cells were lysed in 10% acetic acid and OD595 was determined. […]

[2] = system: MDA-MB231 breast cancer cells; assay: Extracellular matrix invasion of MDA-MB231 cells (Matrigel Invasion Chambers); details: siRNA transfection, 22 hours
Description: Cytotoxicity and growth of transfected cells were estimated by a standard assay used for cancer drug screening, through the total amount of TCA-precipitated cell proteins after drug treatment (Likhitwitayawuid, K et al., 1993, J Nat Prod 56:30-38): 200 μl of cell suspension (10^5 cells/ml) were added to each well in a 96-well plate. After incubation at, 37° C., in 5% CO2 (30 minutes to 72 hours depending on the time course chosen), 50 μl 50% trichloroacetic acid was added to each well. After incubation at 4° C. for 1 hour, precipitates were washed with water 4-5 times and air dried overnight. One hundred μl of SRB solution (0.4% sulforhodamine B in 1% acetic acid, filtered before use) was added to each well for 30 minutes. Wells were washed with 1% acetic acid 4-5 times and air dried. Two hundred μl 10 mM Tris base was added to each well. Plates were shaken for 5-10 minutes and OD at 490 nm (OD490) was recorded via ELISA reader. To assay matrix invasion, 300 μl of cell suspension (10^6 cells/mL in serum-free medium) were added to invasion inserts (BioCoat Matrigel Invasion Chambers, Becton Dickinson, Bedford, Mass.) and incubated for 22 hours at 37° C., 5% CO2. Cells were stained with 0.9% crystal violet in 10% ethanol for 20 minutes. Inserts were dipped in water several times and air dried. After removal of the non-invading cells from the interior of the inserts, stained invading cells were lysed in 10% acetic acid and OD595 was determined.
Notch silencing was confirmed by Western blot as described above in Example 15 using commercial goat polyclonal antibodies from Santa Cruz Biotechnology to Notch-1 (C-20, Cat# sc-6014 S). For the Western blot analyses, MDA-MB231 cells were treated with 25 μM IL-X for 48 h or with 0.5, 1 or 2 μM z-Leu-Leu-Nle-CHO for 24 h. Cytotoxicity and matrix invasion assays were performed as described above in Example 15. For the cytotoxicity assays, MDA-MB231 cells were treated with […] IL-X for up to 3 days or with 0-20 μM z-Leu-Leu-Nle-CHO for up to 4 days. […]

[3] = system: MDA-MB231 cells; assay: Cell cycle distribution of MDA-MB231 cells by flow cytometry; details: siRNA transfection
Description: Cell cycle analysis was performed to further study the effects of inhibition of Notch signaling in breast cancer cells. MDA-MB231 cells were treated overnight with 0-10 μM z-Leu-Leu-Nle-CHO prior to cell cycle distribution analysis by flow cytometry. Alternatively, MDA-MB231 cells were transfected with Notch-1, Notch-4 or control siRNA as described above in Example 15. For cell cycle distribution analysis by flow cytometry, z-Leu-Leu-Nle-CHO- or siRNA-treated cells (10^6) were pelleted and washed twice in PBS. Cells were then fixed in 80% methanol and stored at −20° C. until use. Fixed cells were pelleted and washed twice in PBS, and resuspended in 50 μl PI:PBS solution (50 μg/ml PI). After RNase A (100 μg/ml) treatment at 37° C. for an hour, cells were analyzed by flow cytometry using a FACScalibur instrument.

[4] = system: NOXA; assay: NOXA antisense oligonucleotide in z-Leu-Leu-Nle-CHO-treated melanoma cells (Western blot, sub-G0 DNA content); details: RJ002L
Description: The role of NOXA in z-Leu-Leu-Nle-CHO-mediated apoptosis of melanoma cells was further evaluated using RJ002L, C8161 and MUM2B melanoma cell lines containing antisense oligonucleotide targeting NOXA. The antisense oligonucleotides (ASO) included a NOXA targeted sequence (5′-TCAGTCTACTGATTTACTGG-3′) (SEQ ID NO: 2) and a control oligonucleotide (CO) (5′-CCTTCCCTGAAGGTTCCTCC-3′) (SEQ ID NO: 3). The ASO were purchased from ISIS Pharmaceuticals Inc. (Carlsbad, Calif.) as previously described by Qin J et al., 2004, Mol Cancer Ther 3:895-902. Melanoma cells were seeded at 2×10^5 cells into 6 well plates I day before transfection. Opti-MEM (InVitrogen) was pre-incubated for 30 minutes at room temperature using a ratio of 3 μM/mL lipofectamine per 100 nmol/L to produce a final oligonucleotide concentration of 50 nmol/L. Cells were washed with PBS and transfection mix (1 ml) was added. After 4 hrs of incubation, RPMI 1640 (1 mL) containing 20% fetal bovine serum and z-Leu-Leu-Nle-CHO (10 μM) was added to the cells and the cells were incubated for 24 hrs. The treated cells were analyzed for cell viability using APO TARGET Annexin V-FITC staining kits (Biosource), for cell cycle progression and by Western blot using NOXA, Bim, Bak and β-actin antibodies as described above.

[5] = system: NOXA; assay: NOXA antisense oligonucleotide pretreatment before proteasome inhibitors in melanoma cell lines; details: MG-132, lactacystin or bortezomib; three melanoma cell lines; 24 hrs
Description: To more definitively establish a role for NOXA in the proteasome inhibitor-induced apoptotic response, three different melanoma cell lines were pre-treated with an antisense oligonucleotides (ASO). The ASOs included a NOXA targeted sequence (5′-TCAGTCTACTGATTTACTGG-3′) (SEQ ID NO: 2) and a universal scrambled control oligonucleotide (5′-TTCTACCTCGCGCGATTTAC-3′) (SEQ ID NO: 4) (FIGS. 10A, 10B and 10C), or control oligonucleotide (CO) (5′-CCTTCCCTGAAGGTTCCTCC-3′) (SEQ ID NO: 3) (FIGS. 6B and 6D). All three ASO were provided by ISIS Pharmaceuticals Inc. (Carlsbad, Calif.) as previously described by Qin et al., 2004, Mol Cancer Ther. 3:895-902). Melanoma cells were seeded at 2×10^5 cells into 6 well plates 1 day before transfection. Opti-MEM (InVitrogen) was pre-incubated for 30 minutes at room temperature using a ratio of 3 μM/mL lipofectamine per 100 nmol/L to produce a final oligonucleotide concentration of […]. Cells were washed with PBS and transfection mix (1 ml) was added. […] The treated cells were analyzed for cell viability using APO TARGET Annexin V-FITC staining kits (Biosource) and by Western blot using NOXA and β-actin antibodies as described above.

[6] = system: CaSki cells; assay: LY411,575 combinations in CaSki cells, growth inhibition and isobologram analysis; details: in vitro
Description: To evaluate the possibility that inhibition of Notch signaling may sensitize advanced cervical cancers to the effect of cisplatin chemotherapy because Notch-1 protects these cells from apoptosis through the AKT and NF-κB pathways, a non-peptide, benzodiazepine gamma-secretase inhibitor, LY411,575 (Wong et al., 2004, J Biol. Chem. 279:12876-82) was tested in combination with a AKT inhibitor (AKT inhibitor I) or a proteasome inhibitor (MG-132) for effects on cell growth. The latter class of drugs is thought to act primarily by preventing NF-KB activation (Adams, J, 2002, Curr Opin Oncol 14:628-634; Richardson, P, 2003, Cancer Treat Rev 29 Suppl 1:33-39) caused by proteasome-mediated degradation of IκB.
To determine whether LY411,575 potentiates the effect of AKT inhibitor I or MG-132, CaSki cells were treated with (a) LY411,575 (6.25 μM to 50 μM) and AKT inhibitor 1 (0.5 μM to 75 μM), or (b) LY411,575 (1.5 μM to 200 μM) and MG-132 (0.05 μM to 0.2). Following the drug treatment, the cells were tested for growth inhibition as described above. LY411,575 was synthesized according to methods well known in the art (e.g., see WO-09828268, which is incorporated by reference), and AKT inhibitor I and MG-132 were purchased from Calbiochem.
The IC50 values of LY411,575 in the presence of various concentrations of AKT inhibitor I or MG-132 were measured. […]

## 5′-AACCCTGTGCCAATGGAGGCA-3′ [Notch-4 siRNA]
[1]
  proliferation: even stronger anti-proliferative effect in MDA-MB231 cells than Notch-1 silencing
[2]
  extracellular matrix invasion: significantly inhibited extracellular matrix invasion
[3]
  cell cycle distribution: accumulation of cells in G2/M was maximal at 24 hours

## 5′-TCAGTCTACTGATTTACTGG-3′ (antisense TCAGTCTACTGATTTACTGG; listed as DNA, chemistry not given here) [NOXA ASO]
[4]; C8161, MUM2B, p<0.01 versus control oligonucleotide
  effect on z-Leu-Leu-Nle-CHO mediated apoptosis (sub-G0 DNA content): significantly reduced z-Leu-Leu-Nle-CHO mediated apoptosis
[4]; 50 nmol/L oligonucleotide
  effect on z-Leu-Leu-Nle-CHO induction of NOXA, Bim, Bak: blocked induction of NOXA, but not Bim or Bak
[5]
  reduction of proteasome inhibitor-induced apoptotic response: 30-50%

## C[C@H](NC(=O)[C@@H](O)c1cc(F)cc(F)c1)C(=O)N[C@@H]1C(=O)N(C)c2ccccc2-c2ccccc21 [LY411,575]
[6]
  potency relative to z-Leu-Leu-Nle-CHO: less potent than z-Leu-Leu-Nle-CHO in vitro
